Data from PubChem BioAssay AID1745844 (Carcinogenic Potency Database (CPDB), 2022).
Active and inactive are the calls of the source. How the calls were made is not given here.

Tested on: rodent lifetime carcinogenesis bioassay, tumor incidence TD50
Assay: carcinogenic potency in animals, long-term in vivo studies, CPDB compilation (AID 1745844)
[1] = mouse, strain B6C3F1, males, in feed, site: liver, lesion: hepatocellular adenoma + hepatocellular carcinoma + neoplastic nodule, dosed 103 weeks, study length 104 weeks
[2] = mouse, strain B6C3F1, males, in feed, site: lung, lesion: alveolar/bronchiolar adenoma + alveolar/bronchiolar carcinoma, dosed 103 weeks, study length 104 weeks
[3] = rat, strain Fischer 344, males, in feed, site: any site (literature study), lesion: several types, types named in the paper, dosed 103 weeks, study length 104 weeks

Work on `NC(=O)NN=Cc1ccc([N+](=O)[O-])o1` yielded a TD50 (mouse, strain B6C3F1, females, in feed, site: any site (literature study), lesion: several types, types named in the paper, dosed 103 weeks, study length 104 weeks) of 66.2 mg/kg/day, a TD50 (mouse, strain B6C3F1, females, in feed, site: lung, lesion: alveolar/bronchiolar adenoma + alveolar/bronchiolar carcinoma, dosed 103 weeks, study length 104 weeks) of 241 mg/kg/day and a TD50 (mouse, strain B6C3F1, females, in feed, site: ovary, lesion: granulosa-cell tumor + mixed tumor, benign, dosed 103 weeks, study length 104 weeks) of 22.4 mg/kg/day. It also gave a TD50 (mouse, strain B6C3F1, females, in feed, site: ovary, lesion: granulosa-cell tumor, dosed 103 weeks, study length 104 weeks) of 124 mg/kg/day, a TD50 (mouse, strain B6C3F1, females, in feed, site: ovary, lesion: mixed tumor, benign + tubular adenoma, dosed 103 weeks, study length 104 weeks) of 29.8 mg/kg/day and a TD50 (mouse, strain B6C3F1, females, in feed, site: ovary, lesion: mixed tumor, benign, dosed 103 weeks, study length 104 weeks) of 30.8 mg/kg/day. For the same molecule, the TD50 (mouse, strain B6C3F1, males, in feed, site: any site (literature study), lesion: several types, types named in the paper, dosed 103 weeks, study length 104 weeks) was 89.3 mg/kg/day, the TD50 [1] was 152 mg/kg/day and the TD50 [2] was 1380 mg/kg/day. The TD50 (mouse, strain B6C3F1, males, in feed, site: subcutaneous tissue, lesion: fibrosarcoma + fibroma + neurofibrosarcoma + sarcoma, NOS, dosed 103 weeks, study length 104 weeks) was 154 mg/kg/day (inactive), the TD50 (rat, strain Fischer 344, females, in feed, site: liver, lesion: hepatocellular adenoma + hepatocellular carcinoma + neoplastic nodule, dosed 103 weeks, study length 104 weeks) was 253 mg/kg/day and the TD50 (rat, strain Fischer 344, females, in feed, site: mammary gland, lesion: fibroadenoma, dosed 103 weeks, study length 104 weeks) was 15.7 mg/kg/day. For the same molecule, the TD50 [3] was 33.8 mg/kg/day, the TD50 (rat, strain Fischer 344, males, in feed, site: preputial gland, lesion: carcinoma, NOS, dosed 103 weeks, study length 104 weeks) was 65.5 mg/kg/day and the TD50 (rat, strain Fischer 344, males, in feed, site: skin, lesion: sebaceous adenoma + trichoepithelioma, dosed 103 weeks, study length 104 weeks) was 151 mg/kg/day. The TD50 (rat, strain Fischer 344, males, in feed, site: skin, lesion: sebaceous adenoma, dosed 103 weeks, study length 104 weeks) was 177 mg/kg/day, the TD50 (rat, strain Fischer 344, males, in feed, site: tunica vaginalis, lesion: mesothelioma, NOS + mesothelioma, malignant, dosed 103 weeks, study length 104 weeks) was 44 mg/kg/day and the TD50 (rat, strain Holtzman albino (Sprague-Dawley derived), females, in feed, site: mammary gland, lesion: fibroadenoma, dosed 36 weeks, study length 54 weeks) was 6.52 mg/kg/day. The carcinogen call (rat, strain Holtzman albino (Sprague-Dawley derived), females, in feed, site: mammary tissue, wider than the gland, lesion: one or several types, types not named, dosed 44 weeks, study length 60 weeks) was “positive” and the TD50 (rat, strain Sprague-Dawley, females, in feed, site: mammary tissue, wider than the gland, lesion: one or several types, types not named, dosed 46 weeks, study length 66 weeks) was 7.12 mg/kg/day.

With `CCCCN(CCCC)N=O` the TD50 (mouse, strain ICR/Jcl, males, in feed, site: esophagus, lesion: papilloma, dosed 52 weeks, study length 65 weeks) was 11.9 mg/kg/day, the TD50 (mouse, strain ICR/Jcl, males, in feed, site: forestomach, lesion: several types, types named in the paper, dosed 52 weeks, study length 65 weeks) was 0.686 mg/kg/day and the TD50 (mouse, strain ICR/Jcl, males, in feed, site: forestomach, lesion: squamous-cell carcinoma, dosed 52 weeks, study length 65 weeks) was 1.09 mg/kg/day. The TD50 (mouse, strain ICR/Jcl, males, in feed, site: forestomach, lesion: squamous-cell papilloma, dosed 52 weeks, study length 65 weeks) was 7.69 mg/kg/day, the TD50 (mouse, strain ICR/Jcl, males, in feed, site: liver, lesion: adenoma, dosed 52 weeks, study length 65 weeks) was 4.34 mg/kg/day and the TD50 (mouse, strain ICR/Jcl, males, in feed, site: liver, lesion: several types, types named in the paper, dosed 52 weeks, study length 65 weeks) was 2.65 mg/kg/day. It also gave a TD50 (mouse, strain ICR/Jcl, males, in feed, site: lung, lesion: adenoma, dosed 52 weeks, study length 65 weeks) of 8 mg/kg/day, a TD50 (rat, strain Fischer 344, males, by gavage, site: forestomach, lesion: carcinoma, dosed 30 weeks, study length 108 weeks) of 0.914 mg/kg/day and a TD50 (rat, strain Fischer 344, males, by gavage, site: liver, lesion: hepatocellular carcinoma, dosed 30 weeks, study length 108 weeks) of 0.691 mg/kg/day. The TD50 (rat, strain Fischer 344, males, by gavage, site: lung, lesion: carcinoma, dosed 30 weeks, study length 108 weeks) was 1.16 mg/kg/day and the TD50 (rat, strain Fischer 344, males, by gavage, site: urinary bladder, lesion: transitional-cell carcinoma, dosed 30 weeks, study length 108 weeks) was 1.47 mg/kg/day.

In the case of `O=C1NCCN1/N=C/c1ccc([N+](=O)[O-])o1`, the TD50 (rat, strain Sprague-Dawley, females, in feed, site: all sites, lesion: lymphoblastic lymphoma, dosed 46 weeks, study length 66 weeks) is reported as 82 mg/kg/day and the TD50 (rat, strain Sprague-Dawley, females, in feed, site: mammary gland, lesion: adenocarcinoma, dosed 46 weeks, study length 66 weeks) is reported as 5.26 mg/kg/day.

In the case of `CC[C@]1(O)C[C@@H]2CN(CCc3c([nH]c4ccccc34)[C@@](C(=O)OC)(c3cc4c(cc3OC)N(C)[C@H]3[C@@](O)(C(=O)OC)[C@H](OC(C)=O)[C@]5(CC)C=CCN6CC[C@]43[C@@H]65)C2)C1`, the carcinogen call (rat, strain BR 46, males, i.v., site: any site (literature study), lesion: several types, types named in the paper, dosed 52 weeks, study length 104 weeks) is reported as “negative (inactive)”.

`CBr` was tested, and the carcinogen call (mouse, strain B6C3F1, females, inhaled, site: any site (literature study), lesion: several types, types named in the paper, dosed 75 weeks, study length 104 weeks) was “negative (inactive)”, the carcinogen call (mouse, strain B6C3F1, males, inhaled, site: any site (literature study), lesion: several types, types named in the paper, dosed 75 weeks, study length 104 weeks) was “negative (inactive)” and the carcinogen call (mouse, strain Crj:BDF1, females, inhaled, site: liver, lesion: hepatocellular adenoma, dosed 104 weeks, study length 105 weeks) was “negative (inactive)”. For the same molecule, the TD50 (mouse, strain Crj:BDF1, females, inhaled, site: liver, lesion: hepatocellular carcinoma, dosed 104 weeks, study length 105 weeks) was 23900 mg/kg/day (inactive), the TD50 (mouse, strain Crj:BDF1, females, inhaled, site: lung, lesion: alveolar/bronchiolar adenoma, dosed 104 weeks, study length 105 weeks) was 6420 mg/kg/day (inactive) and the carcinogen call (mouse, strain Crj:BDF1, females, inhaled, site: lung, lesion: alveolar/bronchiolar carcinoma, dosed 104 weeks, study length 105 weeks) was “negative (inactive)”. For the same molecule, the TD50 (mouse, strain Crj:BDF1, females, inhaled, site: lymph node, lesion: malignant lymphoma, dosed 104 weeks, study length 105 weeks) was 845 mg/kg/day (inactive), the carcinogen call (mouse, strain Crj:BDF1, males, inhaled, site: liver, lesion: hepatocellular adenoma, dosed 104 weeks, study length 105 weeks) was “negative (inactive)” and the carcinogen call (mouse, strain Crj:BDF1, males, inhaled, site: liver, lesion: hepatocellular carcinoma, dosed 104 weeks, study length 105 weeks) was “negative (inactive)”. For the same molecule, the carcinogen call (mouse, strain Crj:BDF1, males, inhaled, site: lung, lesion: alveolar/bronchiolar adenoma, dosed 104 weeks, study length 105 weeks) was “negative (inactive)”, the carcinogen call (mouse, strain Crj:BDF1, males, inhaled, site: lung, lesion: alveolar/bronchiolar carcinoma, dosed 104 weeks, study length 105 weeks) was “negative (inactive)” and the TD50 (rat, strain F344/DuCrj, females, inhaled, site: adrenal gland, lesion: pheochromocytoma, dosed 104 weeks, study length 105 weeks) was 805 mg/kg/day (inactive). For the same molecule, the carcinogen call (rat, strain F344/DuCrj, females, inhaled, site: liver, lesion: hepatocellular adenoma, dosed 104 weeks, study length 105 weeks) was “negative (inactive)”, the carcinogen call (rat, strain F344/DuCrj, females, inhaled, site: liver, lesion: hepatocellular carcinoma, dosed 104 weeks, study length 105 weeks) was “negative (inactive)” and the carcinogen call (rat, strain F344/DuCrj, males, inhaled, site: liver, lesion: hepatocellular adenoma, dosed 104 weeks, study length 105 weeks) was “negative (inactive)”. For the same molecule, the carcinogen call (rat, strain F344/DuCrj, males, inhaled, site: liver, lesion: hepatocellular carcinoma, dosed 104 weeks, study length 105 weeks) was “negative (inactive)”, the TD50 (rat, strain F344/DuCrj, males, inhaled, site: peritoneum, lesion: mesothelioma, malignant, dosed 104 weeks, study length 105 weeks) was 40.8 mg/kg/day (inactive) and the TD50 (rat, strain F344/DuCrj, males, inhaled, site: pituitary gland, lesion: adenoma, dosed 104 weeks, study length 105 weeks) was 31.8 mg/kg/day (inactive). For the same molecule, the carcinogen call (rat, strain Wistar-random, females, inhaled, site: any site (literature study), lesion: malignant tumor, dosed 129 weeks, study length 129 weeks) was “negative (inactive)”, the carcinogen call (rat, strain Wistar-random, females, inhaled, site: any site (literature study), lesion: one or several types, types not named, dosed 129 weeks, study length 129 weeks) was “negative (inactive)” and the carcinogen call (rat, strain Wistar-random, females, inhaled, site: liver, lesion: cholangiocarcinoma, dosed 129 weeks, study length 129 weeks) was “negative (inactive)”. For the same molecule, the TD50 (rat, strain Wistar-random, females, inhaled, site: liver, lesion: neoplastic nodule, dosed 129 weeks, study length 129 weeks) was 2240 mg/kg/day (inactive), the carcinogen call (rat, strain Wistar-random, females, inhaled, site: nasal cavity, olfactory epithelium, lesion: one or several types, types not named, dosed 129 weeks, study length 129 weeks) was “negative (inactive)” and the carcinogen call (rat, strain Wistar-random, females, inhaled, site: nasal cavity, respiratory epithelium, lesion: one or several types, types not named, dosed 129 weeks, study length 129 weeks) was “negative (inactive)”. For the same molecule, the carcinogen call (rat, strain Wistar-random, males, inhaled, site: any site (literature study), lesion: malignant tumor, dosed 128 weeks, study length 128 weeks) was “negative (inactive)”, the carcinogen call (rat, strain Wistar-random, males, inhaled, site: any site (literature study), lesion: one or several types, types not named, dosed 128 weeks, study length 128 weeks) was “negative (inactive)” and the carcinogen call (rat, strain Wistar-random, males, inhaled, site: liver, lesion: cholangiocarcinoma, dosed 128 weeks, study length 128 weeks) was “negative (inactive)”. For the same molecule, the carcinogen call (rat, strain Wistar-random, males, inhaled, site: liver, lesion: hepatocellular carcinoma, dosed 128 weeks, study length 128 weeks) was “negative (inactive)”, the carcinogen call (rat, strain Wistar-random, males, inhaled, site: liver, lesion: neoplastic nodule, dosed 128 weeks, study length 128 weeks) was “negative (inactive)” and the carcinogen call (rat, strain Wistar-random, males, inhaled, site: nasal cavity, olfactory epithelium, lesion: one or several types, types not named, dosed 128 weeks, study length 128 weeks) was “negative (inactive)”. The carcinogen call (rat, strain Wistar-random, males, inhaled, site: nasal cavity, respiratory epithelium, lesion: fibrosarcoma, dosed 128 weeks, study length 128 weeks) was “negative (inactive)”, the carcinogen call (rat, strain Wistar-random, males, inhaled, site: nasal cavity, respiratory epithelium, lesion: osteosarcoma, dosed 128 weeks, study length 128 weeks) was “negative (inactive)” and the carcinogen call (rat, strain Wistar-random, males, inhaled, site: nasal cavity, respiratory epithelium, lesion: squamous-cell carcinoma, dosed 128 weeks, study length 128 weeks) was “negative (inactive)”. The carcinogen call (rat, strain Wistar-random, males, inhaled, site: pituitary gland, lesion: hemorrhagic tumor, dosed 128 weeks, study length 128 weeks) was “negative (inactive)”.

With `CCCCC(CC)COC(=O)CCCCC(=O)OCC(CC)CCCC` (stereo not drawn) the TD50 (mouse, strain B6C3F1, females, in feed, site: liver, lesion: hepatocellular adenoma + hepatocellular carcinoma + neoplastic nodule, dosed 103 weeks, study length 105 weeks) was 3840 mg/kg/day, the TD50 (mouse, strain B6C3F1, females, in feed, site: liver, lesion: hepatocellular adenoma + hepatocellular carcinoma, dosed 103 weeks, study length 105 weeks) was 3840 mg/kg/day and the TD50 (mouse, strain B6C3F1, females, in feed, site: liver, lesion: hepatocellular carcinoma, dosed 103 weeks, study length 105 weeks) was 3050 mg/kg/day. For the same molecule, the TD50 [1] was 5330 mg/kg/day, the TD50 (mouse, strain B6C3F1, males, in feed, site: liver, lesion: hepatocellular adenoma + hepatocellular carcinoma, dosed 103 weeks, study length 104 weeks) was 5330 mg/kg/day and the TD50 (mouse, strain B6C3F1, males, in feed, site: liver, lesion: hepatocellular adenoma, dosed 103 weeks, study length 104 weeks) was 9040 mg/kg/day. For the same molecule, the TD50 [2] was 11700 mg/kg/day, the carcinogen call (rat, strain Fischer 344, females, in feed, site: any site (literature study), lesion: several types, types named in the paper, dosed 103 weeks, study length 105 weeks) was “negative (inactive)” and the TD50 (rat, strain Fischer 344, females, in feed, site: liver, lesion: hepatocellular adenoma + hepatocellular carcinoma + neoplastic nodule, dosed 103 weeks, study length 105 weeks) was 14500 mg/kg/day. The carcinogen call [3] was “negative (inactive)”.
